Measurements from patent US10537575B2, “Phosphodiesterase inhibitors to repair brain and/or retinal injury in human newborns” (priority 2016, dated 2020).

Key:
Type in all cases: in vivo
[1] = tested on: Long-Evans rat pups (term neonatal HIE model); settings: HI rat pups
From the text: The experiments were run in a dark environment (below 20 lux of illumination). The equipment consists of a 1.3 m-long glass plate with a dim fluorescent light coming from the side and beamed into the glass. The light reflected downwards by the rats' paws as they contact the glass floor is captured by a high-speed video camera placed under the walkway, and then transformed into a digital image ([…] et al., 2006; Hetze S et al., 2012; Lubjuhn J et al., 2009, […] et al., 2013, Wang Y et al., 2008). The walkway was 90 mm wide. The camera was positioned 40 cm below the walkway, and automatic detection settings were applied. The rat pups walked spontaneously at their own speed; the mother was systematically placed in the goal box to motivate the rat pups to run towards it. An intensity threshold was set to 0.1, the camera gain was set to 20, and the maximum allowed speed variation was set to 60%. A minimum of three quality runs per rat pups were acquired. Only uninterrupted runs were saved for analysis; runs, where animals turned or walked backwards, were excluded, and the animal got another try. […] Step sequence regularity index is a percent index for the degree of interlimb coordination during the gait, as measured by the number of normal step sequence patterns, multiplied by the number of paws and divided by the number of paw placements. […]

[2] = tested on: Long-Evans rat pups (term neonatal HIE model); test: Microvessel density (collagen IV staining) at P30; settings: HI, sildenafil 50 mg/kg, p<0.01
Method: In addition, using the fourth slide prepared for each animal, an immunohistochemistry with collagen IV staining also was used to assess microvessel density. Sections were labeled with an anti-collagen type IV antibody (EMD Millipore: AB769, Temecula, Calif., USA) (dilution 1:400, incubation time overnight at room temperature) (Tong X K et al., 2005). Then, these sections were incubated with the secondary antibody CyTM3-conjugated AffiniPure donkey anti-goat IgG (Cedarlane: 705-165-147, West Grove, Pa., USA) (dilution 1:400, incubation time 1 hour at room temperature). These sections were rinsed with tris-buffered saline and cover slipped with Vectashield Mounting media containing 4,6-diamidino-2-phenylindole (DAPI) (Vector Laboratories: H1200, Burlingame, Calif., USA) to visualize cell nuclei. To estimate microvessel density, single-layer immunoreactive blood vessels in all orientations were counted as individual microvessels. Collagen IV staining in large vessels with tunica media were disregarded in the microvessel counts (Hallene K L et al., 2006, Iwai M et al., 2007; Noguchi T et al., 2008; Rigau V et al., 2007; Wintermark P et al., 2013; Shaikh H et al., 2015). […] One investigator took pictures of the respective fields of view at 10× magnification.

[3] = tested on: Long-Evans rat pups (term neonatal HIE model); test: Neurons count (NeuN) in cortex at P30; settings: HI; for neuronal number near the infarct boundary zone, median (IQR): ipsilateral cortex
Method: Using the second slide prepared for each animal, an immunohistochemistry was performed to examine the number of mature neurons. Neurons were labeled with an anti-neuronal nuclei (NeuN) antibody (Millipore: MAB377, Billerica, Mass., USA) (dilution 1:500, incubation time 1 hour at room temperature) (Hendrickson M L et al., 2011). Sections then were incubated with the secondary antibody Alexa Fluor® 488 goat anti-rabbit IgG (Molecular Probes®, Life Technologies: A11034, Carlsbad, Calif., USA) (dilution 1:1000, incubation time 2 hours at 4° C.). These sections were rinsed with tris-buffered saline and cover slipped with Vectashield Mounting media containing 4,6-diamidino-2-phenylindole (DAPI) (Vector Laboratories: H1200, Burlingame, Calif., USA) to visualize cell nuclei. Cells co-labeled with NeuN and DAPI were identified as neurons. […] One investigator took pictures of the respective fields of view at 10× magnification.

[4] = tested on: Long-Evans rat pups (neonatal HI); test: Cerebellum injury after neonatal HI; settings: P30
Method: Neonatal HI was induced in male Long-Evans rat pups at postnatal day 10 (P10) by left common carotid ligation followed by a 2-hour exposure to 8% oxygen; sham operated rat pups served as the control. […] At P30, the rats were sacrificed, and the cerebellum was extracted. The internal granular layers and molecular layers of the cerebellum were measured across all groups on cresyl violet-stained cerebellum sections. Astrocytes expressing Vascular Endothelial Growth Factor (VEGF) in the internal granular layers and molecular layers were quantified using immunohistochemistry.

CCCc1nn(C)c2c(=O)[nH]c(-c3cc(S(=O)(=O)N4CCN(C)CC4)ccc3OCC)nc12 [sildenafil]
print length (gait) ([1]; high-dose of sildenafil): showed an increase | neurological deficits as measured by the gait analysis ([1]; sildenafil even in small doses): improvement of the neurological deficits | microvessel density near the infarct boundary zone, median (IQR) [2]: 211 (182; 221) | neuronal number near the infarct boundary zone, median (IQR) ([3]; high-dose sildenafil, p<0.001): 1368 (1292; 1444) neurons/mm^2 | neuronal number in corresponding region of contralateral cortex, median (IQR) ([3]; high-dose sildenafil, p<0.001): 1019 (948; 1106) neurons/mm^2 | neuronal number in corresponding region of contralateral cortex, median (IQR) ([3]; low-dose sildenafil, not significant): 808 (586; 963) neurons/mm^2 | neuronal number in corresponding region of contralateral cortex, median (IQR) ([3]; medium-dose sildenafil, p<0.001): 999 (930; 1107) neurons/mm^2 | neuronal number near the infarct boundary zone, median (IQR) ([3]; sildenafil 2 mg/kg, p<0.01): 1118 (1069; 1238) neurons/mm^2 | neuronal number near the infarct boundary zone, median (IQR) ([3]; sildenafil 10 mg/kg, p<0.001): 1222 (1170; 1338) neurons/mm^2 | thickness of internal granular layers and molecular layers of the cerebellum ([4]; oral sildenafil 2, 10 or 50 mg/kg twice daily 7 days): improvement in the overall thickness of these layers | VEGF expressing astrocytes in cerebellum ([4]; oral sildenafil): reduction of VEGF expressing astrocytes
